In one assay the target is T1, human SF-1 (Homo sapiens, UniProt Q13285).
T1 construct: expressed in transfected cells; host or cells: CHO-K1 cells (Chinese hamster ovary), transient cotransfection with pG5luc
Nature of the assay: SF-1 Luc assay (Gal4DBD-SF-1LBD luciferase reporter in transfected CHO-K1 cells). It counts as cell-based. The conditions noted are these: for EC50: CHO-K1 cells transfected with GAL4-SF-1 plasmid, 40 hours incubation, read-out: hSF-1-Luc: EC50. From the text:
BamHI and XbaI sites introduced by the primers […] (forward) and […] (reverse) were used for subcloning the amplicon into pFA-CMV.
Cells were routinely cultured by splitting them from 1:10 to 1:20. […] Four hours after transfection, cells were trypsinized and suspended to a concentration of 1.6×10^5 cells/ml in supplemented Ham's F-12 media.
Assays: The collected cells were resuspended in the culture medium and plated into a 384 well-white plate (Corning Life Sciences, Acton, MA) at 8,000 cells/50 μL/well.
Measurement of SF-1 Transcriptional Activity: SF-1 transcriptional activity was detected as the intracellular Luc activity using SteadyLite Plus HTS Reporter Gene Assay System. After the measurement of the cell viability, the culture media in the 384 well-plate were completely removed. Then, 30 μL of the Luc substrate solution was added into each well and incubated for 10 min at room temperature. After the incubation, luminescence of each well was measured by a microplate reader.
Calculation of the SF-1 Transcriptional Activity (% of Control): The % of control for the transcriptional activity was calculated according to the following equation: % of control=A/B×100 Equation • A: luminescence count in the test article-treated CHO cells transfected with GAL4-SF-1 plasmid • B: mean luminescence count in the vehicle-treated CHO cells transfected with GAL4-SF-1 plasmid

Assay [1] relates to rat Leydig tumor cell line R2C. In words: R2C proliferation assay for SF-1 antagonists (EdU incorporation). Format: cell-based. The conditions noted are these: for EC50: read-out: R2C: EC50; for inhibition at 8 µM: Leydig. As to the method: SF-1 regulates progenitor cell formation and survival in adult Leydig cells. Anti-proliferative effects of SF-1 antagonists using a SF-1+ rat Leydig tumor cell line, R2C, was investigated. Cell proliferation was measured by detecting DNA incorporation of EdU, a nucleoside analogue that can be fluorescently tagged after cell fixation.
Proliferation of the rat Leydig tumor cell line R2C (ATCC® CCL-97™) was assessed using 5-ethynyl-2′-deoxyuridine (EdU), a nucleoside analogue incorporated during DNA synthesis that can be fluorescently tagged after cell fixation. Cycloheximide, a protein synthesis inhibitor, was used as a positive control for the assay.
R2C cells are maintained according to a protocol provided by the American Type Culture Collection (ATCC). At the time of assay, R2C cells were diluted to 1.0 million cells/mL with culture medium (F12 medium supplemented with 2% FBS and 1% Penicillin-Streptomycin) and 50 uL of cell suspension seeded into each well of 384-well clear bottom plates. The assay plates were incubated in a humidified, 37° C., 6% CO2 atmosphere for 24 hours. Serially diluted SF-1 antagonists, cycloheximide or vehicle (DMSO) were then applied to the R2C cells and incubated in a humidified, 37° C., 6% CO2 atmosphere for two days. EdU (Invitrogen), at a final concentration of 5 μM, was added to the cells and incubated for an additional 16 hours, after which cells were fixed with 10% formalin.
Cells were then washed and permeabilized in 0.5% TritonX-100/PBS solution at RT for 1 hour. EdU incorporation was detected by labeling EdU with 6-FAM azide (Lumiprobe) using a copper (I)-catalyzed Click reaction between an azide and alkyne. The reaction mixture consists of 5 mM ascorbic acid, 1 mM CuSO4, 1 μM 6-FAM azide dissolved in PBS buffer. […] For data normalization, the average fluorescence of DMSO wells was defined as 100%, and average fluorescence of 10 μM cycloheximide wells was defined as 0%. Curve fitting and EC50 determination were performed using the variable slope sigmoidal dose-response analysis.
R2C cells were routinely cultured in R2C culture medium. To assay SF-1 antagonist inhibitory activity, R2C cells were resuspended in the R2C plating medium and plated into a 384 well-clear bottom black plate at 20,000 cells/50 μL/well. […] 10 μL EdU plating solution were then dispensed into each well of assay plate incubated at 37° C., 6% CO2 for two days.
R2C proliferation is measured by detecting the fluorescent labelled EdU. The R2C assay plates were fixed by dispense 60 μL of 10% formalin into each well, and the plates were incubated at room temperature for 1 hour on an orbital shaker. The plates were washed with 80 μL of PBS three times, and cells were permeabilized by treating with 100 μL of PBS-0.5% TritonX-100 at RT for 1 hour on an orbital shaker. The plates were washed with 80 μL of PBS three times, and after the last wash, 25 μL of PBS was dispensed into each well. 25 μL of 2× mounting mix solution was then added into each well of fixed cells, and the plates were incubated at RT for 30 min in the dark on an orbital shaker. The cells were washed with 80 μL of PBS, three times, and after the last wash, 25 μL of PBS was dispensed into each well. […] The cells were washed with 80 μL of PBS, three times, and after the last wash, 50 μL of PBS was dispensed into each well. Assay plates were sealed with aluminum foil, and fluorescence was measured using a Envision microplate reader.
The % of control for the proliferation activity was calculated according to the following equation: % of control=100×(A−C)/(B−C) Equation • A: fluorescence count in the test article-treated R2C cells • B: mean fluorescence count in the vehicle-treated R2C cells • C: mean fluorescence count in the 10 μM cycloheximide-treated R2C cells

Like-named read-outs stand apart in the source and are kept apart here. Bounds are passed on as bounds.

T1 sequence (Q13285 198-461 limits assumed): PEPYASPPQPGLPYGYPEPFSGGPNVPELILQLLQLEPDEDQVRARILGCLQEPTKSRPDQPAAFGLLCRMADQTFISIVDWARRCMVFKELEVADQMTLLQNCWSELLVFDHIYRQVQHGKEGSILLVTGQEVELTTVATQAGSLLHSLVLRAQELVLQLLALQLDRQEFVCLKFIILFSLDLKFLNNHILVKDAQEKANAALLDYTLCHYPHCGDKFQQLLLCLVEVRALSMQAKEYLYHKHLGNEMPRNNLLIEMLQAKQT

What is called EC50 is the concentration needed to bring the measured effect to its halfway point. For `C[C@@H](O)CO[C@H]1CC[C@H](NC(=O)Cn2cnc3c(Nc4ccc(C(F)(F)F)cc4)nn(C)c3c2=O)CC1` [Compound 23, N-((1R,4r)-4-((R)-2-hydroxypropoxy)cyclohexyl)-2-(1-methyl-7-oxo-3-((4-(trifluoromethyl)phenyl)amino)-1,7-dihydro-6H-pyrazolo[4,3-d]pyrimidin-6-yl)acetamide], the EC50 is below 0.2 µM on human SF-1 and below 0.2 µM in assay [1] (R2C cells, EdU incorporation).

As for `Cn1nc(Nc2ccc(C(F)(F)F)cc2)c2ncn(CC(=O)N[C@H]3CC[C@H](OCC(C)(C)O)CC3)c(=O)c21` [Compound 24, N-((trans)-4-(2-hydroxy-2-methylpropoxy)cyclohexyl)-2-(1-methyl-7-oxo-3-((4-(trifluoromethyl)phenyl)amino)-1,7-dihydro-6H-pyrazolo[4,3-d]pyrimidin-6-yl)acetamide], the EC50 at human SF-1 is below 0.2 µM; in assay [1] (R2C cells, EdU incorporation), below 0.2 µM.

For the compound `Cn1nc(Nc2ccc(C(F)(F)F)cc2)c2ncn(CC(=O)N[C@H]3CC[C@H](C(C)(C)CO)CC3)c(=O)c21` [Compound 27, N-((trans)-4-(1-hydroxy-2-methylpropan-2-yl)cyclohexyl)-2-(1-methyl-7-oxo-3-((4-(trifluoromethyl)phenyl)amino)-1,7-dihydro-6H-pyrazolo[4,3-d]pyrimidin-6-yl)acetamide], the EC50 was below 0.2 µM at human SF-1 and below 0.2 µM in assay [1] (R2C cells, EdU incorporation).

For the compound `Cn1nc(Nc2ccc(C(F)(F)F)cc2)c2ncn(CC(=O)N[C@H]3CC[C@H](O)CC3)c(=O)c21` [Compound 28, N-((trans)-4-hydroxycyclohexyl)-2-(1-methyl-7-oxo-3-((4-(trifluoromethyl)phenyl)amino)-1,7-dihydro-6H-pyrazolo[4,3-d]pyrimidin-6-yl)acetamide], the concentration giving a half-maximal response (EC50) at human SF-1 was in the range of 0.2 to 1 µM; in assay [1] (R2C cells, EdU incorporation), 1 to 10 µM.

Take `Cn1nc(Nc2ccc(C(F)(F)F)cc2)c2ncn(CC(=O)N[C@H]3CC[C@H](OC(F)F)CC3)c(=O)c21` [Compound 32, N-((1r,4r)-4-(difluoromethoxy)cyclohexyl)-2-(1-methyl-7-oxo-3-((4-(trifluoromethyl)phenyl)amino)-1,7-dihydro-6H-pyrazolo[4,3-d]pyrimidin-6-yl)acetamide]: the EC50 (on human SF-1; in assay [1] (R2C)) was below 0.2 µM each time.

On to `Cn1nc(Nc2ccc(C(F)(F)F)cc2)c2ncn(CC(=O)N[C@H]3CC[C@@H](OC(F)F)CC3)c(=O)c21` [Compound 36, N-((1s,4s)-4-(difluoromethoxy)cyclohexyl)-2-(1-methyl-7-oxo-3-((4-(trifluoromethyl)phenyl)amino)-1,7-dihydro-6H-pyrazolo[4,3-d]pyrimidin-6-yl)acetamide], for which the EC50 at human SF-1 is below 0.2 µM; in assay [1] (R2C), 0.2 to 1 µM.

With `Cn1nc(Nc2ccc(C(F)(F)F)cc2)c2ncn(CC(=O)N[C@H]3CC[C@H](OCC4CCOCC4)CC3)c(=O)c21` [Compound 39, 2-(1-methyl-7-oxo-3-((4-(trifluoromethyl)phenyl)amino)-1,7-dihydro-6H-pyrazolo[4,3-d]pyrimidin-6-yl)-N-((1r,4r)-4-((tetrahydro-2H-pyran-4-yl)methoxy)cyclohexyl)acetamide], the EC50 at human SF-1 was below 0.2 µM; in assay [1] (R2C cells, EdU incorporation), below 0.2 µM.

One may read the inhibition as how much of the control response was suppressed. On to `Cn1nc(Nc2ccc(C(F)(F)F)cn2)c2ncn(CC(=O)N[C@H]3CC[C@H](OCC(C)(C)O)CC3)c(=O)c21` [Compound 52, N-((1r,4r)-4-(2-hydroxy-2-methylpropoxy)cyclohexyl)-2-(1-methyl-7-oxo-3-((5-(trifluoromethyl)pyridin-2-yl)amino)-1,7-dihydro-6H-pyrazolo[4,3-d]pyrimidin-6-yl)acetamide], for which the EC50 on human SF-1 fell in the range of 1 to 10 µM. This compound yielded an inhibition at 8 µM in assay [1] of 72%.

`Cn1nc(Nc2ccc(C(F)(F)F)cn2)c2ncn(CC(=O)N[C@H]3CC[C@H](OC(F)F)CC3)c(=O)c21` [Compound 55, N-((1r,4r)-4-(difluoromethoxy)cyclohexyl)-2-(1-methyl-7-oxo-3-((5-(trifluoromethyl)pyridin-2-yl)amino)-1,7-dihydro-6H-pyrazolo[4,3-d]pyrimidin-6-yl)acetamide]: the EC50 at human SF-1 was 0.2 to 1 µM; in assay [1] (R2C cells, EdU incorporation) it was 1 to 10 µM.

`COc1ccc(NC(=O)Cn2cnc3c(Nc4ccc(C(F)(F)F)cn4)n[nH]c3c2=O)cc1F` [Compound 63, N-(3-fluoro-4-methoxyphenyl)-2-(7-oxo-3-((5-(trifluoromethyl)pyridin-2-yl)amino)-1,7-dihydro-6H-pyrazolo[4,3-d]pyrimidin-6-yl)acetamide]: the inhibition at 8 µM came to 75% on human SF-1 (CHO-K1, read-out: hSF-1-Luc: inhibition at 8 uM) and 19% in assay [1].

Turning to `COc1ccc(NC(=O)Cn2cnc3c(Nc4ccc(C(F)(F)F)cn4)nn(C)c3c2=O)cc1F` [Compound 64, N-(3-fluoro-4-methoxyphenyl)-2-(1-methyl-7-oxo-3-((5-(trifluoromethyl)pyridin-2-yl)amino)-1,7-dihydro-6H-pyrazolo[4,3-d]pyrimidin-6-yl)acetamide], the EC50 on human SF-1 lay within 1 to 10 µM; in assay [1] (R2C cells, EdU incorporation) it was 1 to 10 µM.

With `Cn1nc(Nc2ccc(C(F)(F)F)nc2)c2ncn(CC(=O)N[C@H]3CC[C@H](OC(F)F)CC3)c(=O)c21` [Compound 65, N-((1r,4r)-4-(difluoromethoxy)cyclohexyl)-2-(1-methyl-7-oxo-3-((6-(trifluoromethyl)pyridin-3-yl)amino)-1,7-dihydro-6H-pyrazolo[4,3-d]pyrimidin-6-yl)acetamide], the EC50 at human SF-1 is below 0.2 µM; in assay [1] (R2C cells, EdU incorporation), 0.2 to 1 µM.

As for `Cn1nc(Nc2ccc(C(F)(F)F)nc2)c2ncn(CC(=O)N[C@H]3CC[C@H](OCC(C)(C)O)CC3)c(=O)c21` [Compound 68, N-((1r,4r)-4-(2-hydroxy-2-methylpropoxy)cyclohexyl)-2-(1-methyl-7-oxo-3-((6-(trifluoromethyl)pyridin-3-yl)amino)-1,7-dihydro-6H-pyrazolo[4,3-d]pyrimidin-6-yl)acetamide], the EC50 lay in the range of 0.2 to 1 µM on human SF-1 and 1 to 10 µM in assay [1] (R2C cells, EdU incorporation).

`COc1ccc(NC(=O)Cn2cnc3c(Nc4ccc(OC(C)C)cc4)nn(C)c3c2=O)cc1F` [Compound 70, N-(3-fluoro-4-methoxyphenyl)-2-(3-((4-isopropoxyphenyl)amino)-1-methyl-7-oxo-1,7-dihydro-6H-pyrazolo[4,3-d]pyrimidin-6-yl)acetamide]: the EC50 is below 0.2 µM at human SF-1 and 1 to 10 µM in assay [1] (R2C cells, EdU incorporation).

In the case of `COc1ccc(NC(=O)Cn2cnc3c(Nc4ccc(Cl)cc4)nn(C)c3c2=O)cc1F` [Compound 71, 2-(3-((4-chlorophenyl)amino)-1-methyl-7-oxo-1,7-dihydro-6H-pyrazolo[4,3-d]pyrimidin-6-yl)-N-(3-fluoro-4-methoxyphenyl)acetamide], the EC50 (at human SF-1; in assay [1] (R2C)) was below 0.2 µM throughout.

Source of the values: US12617799B2, “Pyrazolopyrimidinone compounds” (Orphagen Pharmaceuticals, Inc., priority 2021, dated 2026).
